Square brackets hold non-standard residues; d marks the D form. Ends that are not written are not given here.

The test system of one experiment is avian pathogenic E. coli. The note with it: prophylactic in ovo injection of chicken embryos; cited from earlier work.
Experiment [1] has as its system Candida albicans ATCC10231. The experiment is described as follows: Candidacidal activity of DCATH-2 primed dTHP-1 cells. In kind it is cell-based. The note with it: 24 h DCATH-2 training; colonies after 48 h. The method, then:
dTHP-1 cells were seeded in 6 well plates and primed with DCATH-2 or medium as described. Candida albicans ATCC10231 was grown in yeast malt broth (Oxoid) at 30° C., diluted in DPBS to 1×10^4 CFU/ml and added to each well (MOI of 0.03). After 5 h incubation at 30° C., supernatants were transferred and kept. The remaining cells were supplemented with 0.5 ml of sterile water, mixed vigorously and combined with their corresponding well supernatants. Serial dilutions prepared in yeast malt broth were plated onto yeast malt agar. Colonies were counted after 48 h at 30° C.

Experiment [2] relates to dTHP-1 cells. The experiment is described as follows: Innate immune training of dTHP-1 cells by cathelicidin peptides, cytokine ELISA after TLR agonist re-stimulation. In kind it is cell-based, human. The protocol:
THP-1 cells were cultured in Iscove Modified Dulbecco Media (IMDM, Gibco) containing Glutamax-I, sodium pyruvate, 10% fetal calf serum at 37° C. and 5% CO2. For differentiation to macrophage-like cells, THP-1 cells were grown in IMDM/FCS medium containing 8 of 100 nM PMA and seeded in 96 wells (5×10^4 cells/well), 24 wells (3×10^5 cells/well) or 6 wells plates (1×10^6 cells/well) during 48 h. Subsequently, dTHP-1 were washed with pre-warmed IMDM/FCS, left overnight to rest and primed during 1 to 24 h with 2-10 μM peptides of fresh IMDM/FCS medium, washed 3 times in medium. After 3 days rest cells were stimulated with various stimuli: S. minnesota LPS (10 ng/ml), E. coli LPS (10 or 50 ng/ml), Pam3CSK4 (1 μg/ml) or Pam2CSK4 (1 μg/ml). After 24 h supernatants were collected and stored at −20° C. For inhibition, dTHP-1 cells were pre-incubated for 1 h before priming and during priming with rapamycin (10 nM), AICAR (50 nM), metformin (0.3 mM), wortmannin (1 μM), ascorbate (50 μM), SB203580 (10 μM), PD98059 (10 μM), SP600125 (10 μM), EGCG (40 μM), anacardic acid (50 μM), curcumin (10 μM), garcinol (10 μM), Bay-11-7085 (10 μM), MTA (1 mM), MM-102 (25 μM), suramin (50 μM), KN-62 (3 μM), nystatin (10 μg/ml), and chlorpromazine (10 μM).
TNFα, IL-6, CXCL10 and CCL5 production were measured using ELISA (R&D systems) following instructions of the manufacturer.
Extrapolating from the trained immunity experiments with human monocytes, we examined if mature cathelicidin peptides could induce trained immunity in TH P-1 cells, a human monocyte cell line. TH P-1 cells were differentiated with 100 nM or 8 nM phorbol 12-myristate 13-acetate (PMA) during 48 h washed 3 times and, after overnight rest, primed with 2-10 μM of chicken cathelicidin 2 (CATH-2), its full D-analog DCATH-2 or human cathelicidin LL-37 for 24 h. Subsequently, dTHP-1 cells were washed 3 times and re-stimulated after a 3-day rest period with TLR agonists (24 h) (FIG. 1a). […] Priming with 5 μM of its full-D-amino acid analog DCATH-2 amplified 2- to 3-fold the TNFα and IL-6 production in response to LPS stimulation. A minor response was found for priming with 10 μM LL-37, which amplified IL-6 production 1.4-fold in 100 nM differentiated cells.
For orientation: ELISA stands for enzyme-linked immunosorbent assay.

The test system of experiment [3] is dTHP-1 cells. The experiment in a line: Metabolomics of DCATH-2 trained dTHP-1 cells. In kind it is cell-based, human. The protocol: dTHP-1 cells were seeded (1×10^6 cells/well) in 6 wells plates and primed during 24 h with 5 μM DCATH-2 as described using medium as control. Cell supernatants, cell lysates and medium controls were collected before and after 24 h priming in the absence and presence of 10 nM rapamycin, after washing followed by 3 days rest and after subsequent 24 h LPS (E. coli O111:B4) stimulation. For sample collections, cells were washed once in ice-cold PBS, lysed with by adding 1 ml cold methanol/acetonitrile/water (2:2:1) lysis buffer, scraped and transferred in to vials. Cell supernatants and medium control samples (10 μl) were directly mixed with 200 μl lysis buffer. Samples were shaken for 10 min at 4° C. and centrifuged for 15 min at 18,000×g and 4° C. Supernatants were flash frozen in liquid nitrogen and stored at −80° C. for analysis. Liquid chromatography-mass spectrometry analysis was performed using an Exactive mass spectrometer (Thermo Scientific), coupled to a Dionex Ultimate 3000 auto sampler and pump (Thermo Scientific). The mass spectrometry operated in polarity-switching mode with spray voltages of 4.5 and −3.5 kV. Metabolites were separated using a Sequant ZIC-pHILIC column (2.1×150 mm, […], guard column 2.1×20 mm, […]; Merck) using a linear gradient of acetonitrile and eluent A 20 mM (NH4)2CO3, 0.1% NH40H in ULC/MS grade water (Biosolve BV, Valkenswaard, The Netherlands) and a flow rate of 150 μl/min. Metabolites were identified and peak intensities quantified using LCquan software (Thermo Scientific) on the basis of exact mass within 5 ppm and further validated by concordance with retention times of commercially available standards. Peak intensities were normalized on cell counts of parallel wells before and after LPS stimulation.

Experiment [4] relates to Salmonella enteritidis 706. The experiment in a line: Antibacterial activity (intracellular killing) of DCATH-2 primed dTHP-1 cells. Particulars: 24 h DCATH-2 training; colonies after 24 h. In kind it is cell-based, Salmonella enterica subsp. enterica serovar enteritidis. The protocol: Antibacterial activity was determined according to Tang et al.. dTHP-1 cells were seeded in 6 well plates and primed with DCATH-2 or medium as described. Log-phase culture of Salmonella enterica subsp. enterica serovar enteritidis 706 (Se706) was added to each well at a MOI of 1. After 2 h incubation at 37° C., cells were washed twice with warm DPBS and further incubated for 1 h incubation at 37° C. with IMDM/FCS medium containing 300 μg/ml colistin. After incubation, cells were washed 3 times in DPBS and the lysed with 1% triton X-100. Well contents were serially diluted in tryptone soy broth (Oxoid), plated on tryptone soy agar and counted after 24 h at 37° C.

[5] abbreviates: 5 μM, 24 h priming, 3 days rest.
Where [6] appears, read: after 24 h E. coli LPS stimulation.

Consider “rfgrflrkirrfrpkvtitiqgsarf-NH2 ([dR][dF]G[dR][dF][dL][dR][dK][dI][dR][dR][dF][dR][dP][dK][dV][dT][dI][dT][dI][dQ]G[dS][dA][dR][dF]-NH2; N-terminus assumed; SMILES CC[C@@H](C)[C@@H](NC(=O)[C@@H](CCCCN)NC(=O)[C@@H](CCCNC(=N)N)NC(=O)[C@@H](CC(C)C)NC(=O)[C@@H](Cc1ccccc1)NC(=O)[C@@H](CCCNC(=N)N)NC(=O)CNC(=O)[C@@H](Cc1ccccc1)NC(=O)[C@H](N)CCCNC(=N)N)C(=O)N[C@H](CCCNC(=N)N)C(=O)N[C@H](CCCNC(=N)N)C(=O)N[C@H](Cc1ccccc1)C(=O)N[C@H](CCCNC(=N)N)C(=O)N1CCC[C@@H]1C(=O)N[C@H](CCCCN)C(=O)N[C@@H](C(=O)N[C@@H](C(=O)N[C@@H](C(=O)N[C@@H](C(=O)N[C@@H](C(=O)N[C@H](CCC(N)=O)C(=O)NCC(=O)N[C@H](CO)C(=O)N[C@H](C)C(=O)N[C@H](CCCNC(=N)N)C(=O)N[C@H](Cc1ccccc1)C(N)=O)[C@H](C)CC)[C@H](C)O)[C@H](C)CC)[C@H](C)O)C(C)C) [DCATH-2, full D-amino acid analog of CATH-2]”, for which the “colibacilossis-associated mortality and morbidity” value in the experiment with avian pathogenic E. coli is listed as “considerably reduced”. The “inhibition of outgrowth of Candida albicans vs non-primed dTHP-1 cells” value in experiment [1] came out at 68±10%. The “TNFα and IL-6 production after re-stimulation with TLR2 and TLR4 ligands” value with dTHP-1 cells [2] (5 μM, re-stimulation with E. coli O111:B4 LPS, Pam3CSK4 or Pam2CSK4) is on record as “amplified”. The “production of CCL5 and CXCL10” value in the experiment on dTHP-1 cells [2] (5 μM, re-stimulation with TLR2 and TLR4 agonists) was “not altered”. For the same substance, the “basal production levels of TNFα and IL-6” value in the experiment on dTHP-1 cells [2] (24 h priming (2.5-5 μM DCATH-2), 3 days rest, no re-stimulation) was “not altered”. Further, the “priming time reaching highest level of training” value in the experiment with dTHP-1 cells [2] (TNFα amplification, re-stimulation with 1 μg/ml Pam3CSK4) stood at 24 h. Also, in the experiment with dTHP-1 cells [3] (setting [5]), the “TCA cycle and urea cycle” value is listed as “not significantly affected”; the “de novo pyrimidine synthesis” value is recorded as “increased”; the “glycolysis (metabolic intermediates)” value is “increased”; the intracellular glucose concentrations entry was “lower”. Further, in the experiment with dTHP-1 cells [3] (setting [5]), the intracellular lactate levels entry is recorded as “higher”; the “lactate secretion into the medium” value is listed as “augmented”; the “levels of intracellular medium-chain and long-chain acylcarnitines” value is “dramatically increased”; the “usage of amino acids” value was “overall enhanced usage”. Also, the “TCA cycle, urea cycle or amino acid metabolism” value in the experiment with dTHP-1 cells [3] (LPS stimulation of trained cells) was “did not affect”. Further, in the experiment on dTHP-1 cells [3] (setting [6]), the “intracellular levels of medium-chain and long-chain acylcarnitines” value was “remained elevated”; the “training induced metabolic shift during LPS stimulation” value is “maintained”. Moreover, the “inhibition of outgrowth of Salmonella enteritidis vs non-primed dTHP-1 cells” value in experiment [4] is on record as 78±11%.

The record behind these values is patent publication US20240050526A1, “CATH2 DERIVATIVES FOR STIMULATING INNATE IMMUNE MEMORY” (priority 2020, published 2024).
